For 28 molecules, IC50 results are on record in US8410117B2, “Imidazopyrimidine derivatives” (Hoffmann-La Roche Inc., priority 2010, dated 2013).

As a reminder, the IC50 is the point on the concentration scale where inhibition reaches its midpoint.

In the experiment the target is T1, human PDE10A (Homo sapiens, UniProt Q9Y233).
T1 construct: The human PDE10A full length assay; purchased Enzo Life Science, Lausen, Switzerland SE-534
T1 sequence (Q9Y233 1-779 isoform Q9Y233-1): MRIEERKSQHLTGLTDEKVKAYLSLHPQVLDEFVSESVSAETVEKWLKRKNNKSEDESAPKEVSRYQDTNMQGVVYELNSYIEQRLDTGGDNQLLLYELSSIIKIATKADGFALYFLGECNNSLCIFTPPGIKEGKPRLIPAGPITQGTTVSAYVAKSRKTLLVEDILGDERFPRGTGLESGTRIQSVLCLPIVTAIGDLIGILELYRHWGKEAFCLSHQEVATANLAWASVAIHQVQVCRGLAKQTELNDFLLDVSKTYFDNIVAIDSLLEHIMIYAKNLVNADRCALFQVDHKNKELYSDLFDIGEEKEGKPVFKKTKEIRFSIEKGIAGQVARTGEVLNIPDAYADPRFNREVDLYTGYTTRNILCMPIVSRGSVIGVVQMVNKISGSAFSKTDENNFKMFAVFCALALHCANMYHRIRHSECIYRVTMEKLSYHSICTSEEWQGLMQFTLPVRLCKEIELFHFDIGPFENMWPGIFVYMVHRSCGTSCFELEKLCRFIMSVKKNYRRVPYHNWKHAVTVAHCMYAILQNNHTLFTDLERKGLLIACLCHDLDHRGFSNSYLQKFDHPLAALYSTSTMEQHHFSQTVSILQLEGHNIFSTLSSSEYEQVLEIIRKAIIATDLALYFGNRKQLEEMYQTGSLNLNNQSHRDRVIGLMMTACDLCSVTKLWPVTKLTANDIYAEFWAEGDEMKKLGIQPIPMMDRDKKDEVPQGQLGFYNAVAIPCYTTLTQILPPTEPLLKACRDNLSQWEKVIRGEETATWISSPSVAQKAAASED
Nature of the experiment: human PDE10A full length Scintillation Proximity Assay (SPA). The format is biochemical. Conditions: 50 nM cGMP and 50 nM [3H]-cGMP, 20 minutes at room temperature; read-out: PDE10A inhibition IC50. The protocol: The following test was carried out in order to determine the activity of the compounds of the present invention. PDE10 activity of the compounds of the present invention was determined using a Scintillation Proximity Assay (SPA)-based method similar to the one previously described (Fawcett, L. et al., Proc Natl Acad Sci USA (2000) 97(7):3702-3707).
The human PDE10A full length assay was performed in 96-well micro titer plates. The reaction mixture of 50 μl contained 20 mM HEPES pH=7.5/10 mM MgCl2/0.05 mg/ml BSA (Sigma cat. #A-7906), 50 nM cGMP (Sigma, cat. #G6129) and 50 nM [^3H]-cGMP (GE Healthcare, cat. #TRK392 S.A. 13.2 Ci/mmol), 3.75 ng/well PDE10A enzyme (Enzo Life Science, Lausen, Switzerland cat #SE-534) with or without a specific test compound. A range of concentrations of the potential inhibitor was used to generate data for calculating the concentration of inhibitor resulting in 50% of the effect (e.g. IC50, the concentration of the competitor inhibiting PDE10A activity by 50%). Non-specific activity was tested without the enzyme. The reaction was initiated by the addition of the substrate solution (cGMP and [^3H]-cGMP) and allowed to progress for 20 minutes at room temperature. The reaction was terminated by adding 25 μl of YSi-SPA scintillation beads (GE Healthcare, cat. #RPNQ0150) in 18 mM zinc sulphate solution (stop reagent). After 1 h under shaking, the plate was centrifuged one minute at 170 g to allow beads to settle. Afterwards, radioactive counts were measured on a Perkin Elmer TopCount Scintillation plate reader.
(In general: In a scintillation proximity assay essentially only radioactivity close to the scintillant gives light.)
On to `COCCNC(=O)c1[nH]nnc1C(=O)Nc1ccn2cc(-c3ccccc3)nc2n1` [Example 150, N5-(2-methoxyethyl)-N4-(2-phenylimidazo[1,2-a]pyrimidin-7-yl)-1H-1,2,3-triazole-4,5-dicarboxamide], for which the IC50 came to 0.263 µM. On to `O=C(Nc1ccn2cc(-c3ccccc3)nc2n1)c1nn[nH]c1C(=O)NC1COC1` [Example 141, N5-(oxetan-3-yl)-N4-(2-phenylimidazo[1,2-a]pyrimidin-7-yl)-1H-1,2,3-triazole-4,5-dicarboxamide], for which the IC50 worked out at 0.151 µM.

As for `COCCN(C)C(=O)c1cnn(C)c1C(=O)Nc1ccn2cc(-c3cccc(OCF)c3)nc2n1` [Example 99, 2-Methyl-2H-pyrazole-3,4-dicarboxylic acid 3-{[2-(3-fluoromethoxy-phenyl)-imidazo[1,2-a]pyrimidin-7-yl]-amide}-4-[(2-methoxy-ethyl)-methyl-amide]], the IC50 worked out at 0.019 µM. Next, `CCCCn1ncc(Cl)c1C(=O)Nc1ccn2cc(-c3ccccc3)nc2n1` [Example 9, 2-Butyl-4-chloro-2H-pyrazole-3-carboxylic acid (2-phenyl-imidazo[1,2-a]pyrimidin-7-yl)-amide]: 0.0446 µM; `Cn1ncc(C(=O)NC2(C#N)CC2)c1C(=O)Nc1ccn2cc(-c3ccccc3)nc2n1` [Example 145, N4-(1-cyanocyclopropyl)-1-methyl-N5-(2-phenylimidazo[1,2-a]pyrimidin-7-yl)-1H-pyrazole-4,5-dicarboxamide]: 0.21 µM. Consider `Cn1ncc(C(=O)N2CC(O)C2)c1C(=O)Nc1ccn2cc(-c3ccccc3)nc2n1` [Example 36, 4-(3-Hydroxy-azetidine-1-carbonyl)-2-methyl-2H-pyrazole-3-carboxylic acid (2-phenyl-imidazo[1,2-a]pyrimidin-7-yl)-amide], for which the IC50 is 0.032 µM. Next, `Cn1ncc(C(=O)N2CC3(COC3)C2)c1C(=O)Nc1ccn2cc(-c3ccccc3)nc2n1` [Example 132, 1-methyl-N-(2-phenylimidazo[1,2-a]pyrimidin-7-yl)-4-(2-oxa-6-azaspiro[3.3]heptane-6-carbonyl)-1H-pyrazole-5-carboxamide]: 0.0486 µM; `CN(Cc1ccc(Br)cn1)C(=O)c1cnn(C)c1C(=O)Nc1ccn2cc(-c3ccccc3)nc2n1` [Example 136, N4-((5-bromopyridin-2-yl)methyl)-N4,1-dimethyl-N5-(2-phenylimidazo[1,2-a]pyrimidin-7-yl)-1H-pyrazole-4,5-dicarboxamide]: 0.0997 µM. Next, `CCc1cc(CNC(=O)c2cnn(C)c2C(=O)Nc2ccn3cc(-c4ccccc4)nc3n2)on1` [Example 160, N4-((3-ethylisoxazol-5-yl)methyl)-1-methyl-N5-(2-phenylimidazo[1,2-a]pyrimidin-7-yl)-1H-pyrazole-4,5-dicarboxamide]: 0.459 µM. Next, `CCn1ncc(Cl)c1C(=O)Nc1ccn2cc(-c3ccccc3)nc2n1` [Example 7, 4-Chloro-2-ethyl-2H-pyrazole-3-carboxylic acid (2-phenyl-imidazo[1,2-a]pyrimidin-7-yl)-amide]: 0.14 µM; `Cn1ncc(C(=O)NCc2ccccc2)c1C(=O)Nc1ccn2cc(-c3ccccc3)nc2n1` [Example 162, N4-benzyl-1-methyl-N5-(2-phenylimidazo[1,2-a]pyrimidin-7-yl)-1H-pyrazole-4,5-dicarboxamide]: 0.624 µM.

Turning to `Cn1ncc(C(=O)NCCC(F)(F)F)c1C(=O)Nc1ccn2cc(-c3ccccc3)nc2n1` [Example 126, 1-methyl-N5-(2-phenylimidazo[1,2-a]pyrimidin-7-yl)-N4-(3,3,3-trifluoropropyl)-1H-pyrazole-4,5-dicarboxamide], the IC50 is 0.0247 µM. Regarding `Cn1ncc(C(=O)N2CCC2)c1C(=O)Nc1ccn2cc(-c3ccc(Cl)s3)nc2n1` [Example 74, 4-(Azetidine-1-carbonyl)-2-methyl-2H-pyrazole-3-carboxylic acid [2-(5-chloro-thiophen-2-yl)-imidazo[1,2-a]pyrimidin-7-yl]-amide], the IC50 amounted to 0.004 µM. Next, `Cc1cc(CNC(=O)c2cnn(C)c2C(=O)Nc2ccn3cc(-c4ccccc4)nc3n2)n[nH]1` [Example 121, 1-methyl-N-4-((5-methyl-1H-pyrazol-3-yl)methyl)-N5-(2-phenylimidazo[1,2-a]pyrimidin-7-yl)-1H-pyrazole-4,5-dicarboxamide]: 0.0167 µM; `Cn1ncc(C(=O)NC2CC2)c1C(=O)Nc1ccn2cc(-c3ccccc3)nc2n1` [Example 51, 2-Methyl-2H-pyrazole-3,4-dicarboxylic acid 4-cyclopropylamide 3-[(2-phenyl-imidazo[1,2-a]pyrimidin-7-yl)-amide]]: 0.0148 µM; `CCN(C)C(=O)c1cnn(C)c1C(=O)Nc1ccn2cc(-c3cccc(F)c3)nc2n1` [Example 97, 2-Methyl-2H-pyrazole-3,4-dicarboxylic acid 4-(ethyl-methyl-amide) 3-{[2-(3-fluoro-phenyl)-imidazo[1,2-a]pyrimidin-7-yl]-amide}]: 0.0147 µM.

For `Cn1ncc(C(=O)N2CC=CC2)c1C(=O)Nc1ccn2cc(-c3ccccc3)nc2n1` [Example 114, 4-(2,5-dihydro-1H-pyrrole-1-carbonyl)-1-methyl-N-(2-phenylimidazo[1,2-a]pyrimidin-7-yl)-1H-pyrazole-5-carboxamide], the IC50 turned out to be 0.0028 µM. Next, `CCN(C)C(=O)c1cnn(C)c1C(=O)Nc1ccn2cc(-c3cccc(OCF)c3)nc2n1` [Example 86, N-4-Ethyl-N5-(2-(3-(fluoromethoxy)phenyl)imidazo[1,2-a]pyrimidin-7-yl)-N4,1-dimethyl-1H-pyrazole-4,5-dicarboxamide]: 0.0052 µM. Next, `COCCN(C)C(=O)c1cnn(C)c1C(=O)Nc1ccn2cc(-c3cccc(OCCF)c3)nc2n1` [Example 96, 2-Methyl-2H-pyrazole-3,4-dicarboxylic acid 3-({2-[3-(2-fluoro-ethoxy)-phenyl]-imidazo[1,2-a]pyrimidin-7-yl}-amide) 4-[(2-methoxy-ethyl)-methyl-amide]]: 0.0126 µM.

`CC(C)c1noc(CNC(=O)c2cnn(C)c2C(=O)Nc2ccn3cc(-c4ccccc4)nc3n2)n1` [Example 171, N4-((3-isopropyl-1,2,4-oxadiazol-5-yl)methyl)-1-methyl-N5-(2-phenylimidazo[1,2-a]pyrimidin-7-yl)-1H-pyrazole-4,5-dicarboxamide]: the IC50 stood at 0.989 µM.

Take `CCN(C)C(=O)c1cn(C)nc1C(=O)Nc1ccn2cc(-c3ccccc3)nc2n1` [Example 68, 1-Methyl-1H-pyrazole-3,4-dicarboxylic acid 4-(ethyl-methyl-amide) 3-[(2-phenyl-imidazo[1,2-a]pyrimidin-7-yl)-amide]]: the IC50 is 0.0377 µM. With `Cn1ncc(C(=O)NCC#N)c1C(=O)Nc1ccn2cc(-c3ccccc3)nc2n1` [Example 125, N4-(cyanomethyl)-1-methyl-N5-(2-phenylimidazo[1,2-a]pyrimidin-7-yl)-1H-pyrazole-4,5-dicarboxamide], the IC50 stood at 0.0187 µM. For `Cn1ncc(C(=O)NCc2noc(C3CC3)n2)c1C(=O)Nc1ccn2cc(-c3ccccc3)nc2n1` [Example 166, N4-((5-cyclopropyl-1,2,4-oxadiazol-3-yl)methyl)-1-methyl-N5-(2-phenylimidazo[1,2-a]pyrimidin-7-yl)-1H-pyrazole-4,5-dicarboxamide], the concentration for half-maximal inhibition (IC50) was found to be 0.812 µM. Regarding `Cn1ncc(C(=O)Nc2ccccc2)c1C(=O)Nc1ccn2cc(-c3ccccc3)nc2n1` [Example 133, 1-methyl-N4-phenyl-N5-(2-phenylimidazo[1,2-a]pyrimidin-7-yl)-1H-pyrazole-4,5-dicarboxamide], the IC50 was determined as 0.0522 µM.

For `O=C(Nc1ccn2cc(-c3ccccc3)nc2n1)c1nn[nH]c1C(=O)N1CCC1` [Example 27, 5-(Azetidine-1-carbonyl)-1H-[1,2,3]triazole-4-carboxylic acid (2-phenyl-imidazo[1,2-a]pyrimidin-7-yl)-amide], the IC50 was 0.163 µM. With `CCCNC(=O)c1[nH]nnc1C(=O)Nc1ccn2cc(-c3ccccc3)nc2n1` [Example 156, N4-(2-phenylimidazo[1,2-a]pyrimidin-7-yl)-N5-propyl-1H-1,2,3-triazole-4,5-dicarboxamide], the IC50 turned out to be 0.359 µM.

Take `Cc1cc(CNC(=O)c2cnn(C)c2C(=O)Nc2ccn3cc(-c4ccccc4)nc3n2)on1` [Example 127, 1-methyl-N4-((3-methylisoxazol-5-yl)methyl)-N5-(2-phenylimidazo[1,2-a]pyrimidin-7-yl)-1H-pyrazole-4,5-dicarboxamide]: the IC50 came out at 0.0259 µM.

On to `Cn1ncc(C(=O)NCc2ccc(Cl)nc2)c1C(=O)Nc1ccn2cc(-c3ccccc3)nc2n1` [Example 154, N4-((6-chloropyridin-3-yl)methyl)-1-methyl-N5-(2-phenylimidazo[1,2-a]pyrimidin-7-yl)-1H-pyrazole-4,5-dicarboxamide], for which the IC50 came out at 0.315 µM.
